Reference: PMC6982876, “Synthesis of Novel Benzodifuranyl; 1,3,5-Triazines; 1,3,5-Oxadiazepines; and Thiazolopyrimidines Derived from Visnaginone and Khellinone as Anti-Inflammatory and Analgesic Agents” (Molecules, 2020)
Marks after values point to notes of the source that are not given here.

Assays:
ovine COX-1 = target: T1, ovine COX-1 (Ovis aries, UniProt P05979); assay: In vitro COX inhibitor screening assay (EIA kit, Cayman), COX-1; format: biochemical; conditions: mean of two determinations, enzyme kit, read-out: COX1 IC50
T1 construct: purchased Cayman Chemical, Ann Arbor, MI, USA 560131
T1 sequence (P05979 25-600): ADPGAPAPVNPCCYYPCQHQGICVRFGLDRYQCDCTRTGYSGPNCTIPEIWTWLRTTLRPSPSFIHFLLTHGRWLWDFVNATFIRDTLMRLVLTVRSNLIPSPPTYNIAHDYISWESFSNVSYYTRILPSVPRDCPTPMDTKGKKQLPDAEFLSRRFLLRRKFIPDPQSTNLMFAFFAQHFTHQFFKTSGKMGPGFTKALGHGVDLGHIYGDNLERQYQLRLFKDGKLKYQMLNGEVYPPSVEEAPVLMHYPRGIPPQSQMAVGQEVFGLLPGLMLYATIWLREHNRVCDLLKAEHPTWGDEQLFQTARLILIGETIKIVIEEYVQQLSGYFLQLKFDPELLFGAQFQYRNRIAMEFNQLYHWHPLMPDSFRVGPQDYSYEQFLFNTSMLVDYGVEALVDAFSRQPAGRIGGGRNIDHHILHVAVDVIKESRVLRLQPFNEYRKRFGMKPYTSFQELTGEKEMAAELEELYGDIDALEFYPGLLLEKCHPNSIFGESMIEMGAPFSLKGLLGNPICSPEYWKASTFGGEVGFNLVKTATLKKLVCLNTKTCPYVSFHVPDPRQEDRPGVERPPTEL
Procedure: (§1) Furthermore, the selectivity index for COX-2 (COX-1 IC50 / COX-2 IC50) was calculated for the compounds.

[1] = test system: acetic acid-induced writhing in mice; assay: Acetic acid-induced writhing test (analgesic activity); format: in vivo; conditions: 10 mg/kg p.o., n = 5; for Writhing Number in 20 min (Mean ± SEM): acetic acid 1 h after dosing; for Analgesic Activity (% protection): writhing test
Procedure: The analgesic activity of the compounds was performed using the writhing test as described by Gawade et al.. Mice weight ranged from 25 to 30 g. Then, mice were divided into 18 different groups, each containing five animals. The animals fasted for 8 h before the experiment. Administration of the compounds (10 mg/kg, p.o.) was performed orally. Equal doses of diclofenac as the reference drug and saline as a negative control were also administrated orally. Writhing was induced one hour after compound administration by using 0.1 mL of 1% glacial acetic acid at a volume of 0.1 mL/10 g body weight. The number of writhing responses (stretching of the abdomen, extension of hind limbs, twisting of the trunk, and elongation of the body) observed was counted for 20 min. The protection percentile against acetic acid-induced writhing was calculated according to the following formula: (1) Analgesic activity (%) =n−n′/n×100* where n is the mean number of writhes of the control group, and n’ is the mean number of writhes of the tested compound group.

human recombinant COX-2 = target: T2, human recombinant COX-2 (Homo sapiens, UniProt P35354); assay: In vitro COX inhibitor screening assay (EIA kit, Cayman), COX-2; format: biochemical; conditions: for COX2 (SI) selectivity index: COX-1 IC50 / COX-2 IC50; for IC50: COX-2, mean of two determinations, enzyme kit, read-out: COX2 IC50
T2 construct: purchased Cayman Chemical, Ann Arbor, MI, USA 560131
T2 sequence (P35354 18-604): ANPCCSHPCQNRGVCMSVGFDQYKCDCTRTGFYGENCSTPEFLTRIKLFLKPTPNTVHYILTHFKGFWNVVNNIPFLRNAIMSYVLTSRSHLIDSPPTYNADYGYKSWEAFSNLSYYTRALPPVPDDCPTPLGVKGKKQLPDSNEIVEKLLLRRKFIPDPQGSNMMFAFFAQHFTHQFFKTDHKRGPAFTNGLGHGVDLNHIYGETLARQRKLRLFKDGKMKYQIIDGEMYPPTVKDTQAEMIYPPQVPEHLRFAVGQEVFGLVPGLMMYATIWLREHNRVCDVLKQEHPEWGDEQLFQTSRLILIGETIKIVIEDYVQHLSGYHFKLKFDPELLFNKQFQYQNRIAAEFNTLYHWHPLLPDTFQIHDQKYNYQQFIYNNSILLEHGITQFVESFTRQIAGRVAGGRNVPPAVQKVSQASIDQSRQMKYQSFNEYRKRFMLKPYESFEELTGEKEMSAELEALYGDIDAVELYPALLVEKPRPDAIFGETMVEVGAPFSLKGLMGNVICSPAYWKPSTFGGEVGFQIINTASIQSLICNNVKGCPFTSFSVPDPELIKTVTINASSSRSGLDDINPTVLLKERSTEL
Procedure: as §1

[2] = test system: interleukin-1 beta (IL-1 β); assay: ELISA of serum interleukin-1 beta after paw edema test; format: in vivo, rats; conditions: rat serum at the end of the paw edema test, mean ± SEM, n = 5
Procedure: IL1 is one of the important inflammatory mediators and is used to confirm the anti-inflammatory activities of new anti-inflammatory compounds. At the end of the paw edema test, blood samples were collected from the orbital axis of the eye under light ether anesthesia. Sera were separated after centrifugation of blood at 5000 rpm for 15 min; the sera were stored at –80 °C until the ELISA assay was performed according to the manufacturer instructions.

[3] = test system: carrageenan-induced paw edema in rats; assay: Carrageenan-induced paw edema (anti-inflammatory activity); format: in vivo; conditions: 10 mg/kg oral; for % Change in Paw Height (Mean ± SEM): n = 5
Procedure: Albino rats (150–180 g) were used. The rats were divided into 11 experimental groups of five rats each. One hour after oral administration of the compounds (10 mg/kg), 0.1 mL of 1% carrageenan solution was injected in the left hind paw of each animal. Rat paw volumes were measured with a digital caliber plethysmometer (UGO Basile, Varese, Italy) used to measure inflammation height at 0, 1, 2, and 3 h after carrageenan injection. The percentage increase in inflammation in the left hind paw, in comparison to the uninjected right hind paw, was determined, calculated, and expressed as the amount of inflammation. […] The anti-inflammatory activity of the selected analgesic compounds after 3 h was expressed as percentage inhibition of edema, which was calculated according to the following equation: (2) Inhibition of edema (%) =Vcont−Vtest/Vcont×100* where V cont is the edema volume in the control group, and V test is the edema volume in the group of the screened compound.

| Structure (SMILES) | IC50 (ovine COX-1) [µM] | Writhing Number in 20 min (Mean ± SEM) [1] | Analgesic Activity (% protection) [1] | COX2 (SI) selectivity index (human recombinant COX-2) | IC50 (human recombinant COX-2) [µM] | IL-1 β Concentration [2] | % Change in Paw Height (Mean ± SEM) ([3]; 1 hr after carrageenan) | % Change in Paw Height (Mean ± SEM) ([3]; 2 hr after carrageenan) | Anti-Inflammatory Activity (% Inhibition of Edema) ([3]; 3 hr after carrageenan) [%] | % Change in Paw Height (Mean ± SEM) ([3]; 3 hr after carrageenan) | melting point [°C] |
| --- | --- | --- | --- | --- | --- | --- | --- | --- | --- | --- | --- |
| COc1c2occc2c(OC)c2c(C)c(C3=NC4=CC(=O)N5C(=O)C(=Cc6ccccc6)SC5N4C(=O)C(=Cc4ccccc4)O3)oc12 (centres unmarked) [Compound 13d, 2,10-di(benzylidene)-8-(4,8-dimethoxy-3-methylbenzo[1,2-b:5,4-b`]difuran-2-yl)-5H, 12aH -thiazolo[2’,3’:2,3]pyrimido[6,1-d][1,3,5]oxadiazepine-3,5,11(2H,10H)-trione] | 5.71 | 32 ± 1.4 ^a | 43 ± 1.90 ^a % | 91 | 0.063 | 38 ± 0.62 ^b Pg /mL | 0.26 ± 0.01 ^a % | 0.20 ± 0.02 ^a % | 60 | 0.23 ± 0.02 ^a % | > 350 |
| COc1ccc(C=C2OC(c3oc4cc5occc5c(OC)c4c3C)=NC3=CC(=O)N4C(=O)C(=Cc5ccc(OC)cc5)SC4N3C2=O)cc1 (centres unmarked) [Compound 13c, 8-(4-methoxy-3-methylbenzo[1,2-b:5,4-b`]difuran-2-yl)-2,10-bis(4-methoxybenzylidene)-5H,12aH-thiazolo[2’,3’:2,3]pyrimido[6,1-d][1,3,5]oxadiazepine-3,5,11(2H,10H)-trione] | 5.52 | 31 ± 1.1 ^a | 44 ± 0.85 ^a % | 92 | 0.06 | 37 ± 0.57 ^b Pg /mL | 0.25 ± 0.01 ^a % | 0.19 ± 0.02 ^a % | 61 | 0.22 ± 0.02 ^a % | > 350 |
| COc1c2ccoc2cc2oc(C(=Nc3cc(N4CCOCC4)nc(N4CCOCC4)n3)N3CCOCC3)c(C)c12 [Compound 10b, N-(2,6-dimorpholinopyrimidin-4-yl)-1-(4-methoxy-3-methylbenzo [1,2-b: 5,4-b`]difuran-2-yl)-1-morpholinomethanimine] | 4.6 | 27 ± 1.1 ^a | 48 ± 1.5 ^a % | 96 | 0.048 | 33 ± 0.38 ^b Pg /mL | 0.21 ± 0.02 ^a % | 0.16 ± 0.01 ^a % | 65 | 0.18 ± 0.01 ^a % | > 350 |
| COc1c2occc2c(OC)c2c(C)c(C(=Nc3cc(N4CCNCC4)nc(N4CCNCC4)n3)N3CCNCC3)oc12 [Compound 10c, N-(2,6-di (piperazin-1-yl)pyrimidin-4-yl)-1-(4,8-dimethoxy-3-methylbenzo [1,2-b: 5,4-b`]difuran-2-yl)-1-(piperazin-1-yl) methanimine] | 4.15 | 24 ± 1.5 ^a | 51 ± 1.4 ^a % |  |  | 30 ± 0.70 ^b Pg /mL | 0.18 ± 0.01 ^a % | 0.13 ± 0.02 ^a % | 68 | 0.15 ± 0.02 ^a % |  |
